In publication PMC5712561 (Frontiers in Oncology, 2017):
Like-named read-outs stand apart in the source and are kept apart here.

Assays:
H1975 cells [1] = experiment: Annexin V apoptosis assay; format: cell-based; conditions: for induction of apoptosis: H1975, 48 h, result in words; for proportion of apoptotic cells: 48 h
Protocol: Cells were grown on a 60-mm tissue culture dish at a density of about 5.0 × 10^5 cells/well. […] At the end of the treatment, both floating and attached cells were collected and washed twice with ice-cold phosphate buffer solution. The extent of apoptosis was determined by using the APC annexin-V apoptosis kit (BD Bioscience, San Jose, CA, USA) according to the manufacturer’s instructions. Cells positive for both annexin V and 7-AAD were considered apoptotic.

EGFR L858R = EGFR L858R (Homo sapiens, UniProt P00533, L858R); experiment: Cell-free kinase inhibition assay (ADP-Glo), EGFR L858R; format: biochemical; conditions: recombinant EGFR L858R, poly-EY substrate
Protocol: (§1) Inhibition of tyrosine kinase signaling by the drug candidates identified was examined in a cell-free system by assessing the phosphorylation of a poly-EY (4:1 Glu, Tyr) peptide substrate (for EGFR) with recombinant kinases EGFR^wt, EGFR^L858R, or EGFR^L858R+T790M as described previously ([34]). Inhibition of the recombinant kinases by the drug candidates was evaluated by using the ADP-Glo Kinase assay kit according to the manufacturer’s instruction (Promega, Madison, WI, USA). […] Also, 5 µL of ADP-Glo reagent was then added and incubation continued at room temperature for another 40 min. Afterward, 10 µL of kinase detection reagent was added and the mixture was allowed to incubate at room temperature for 30 min, before the measurement of luminescence by GloMax 20/20 Luminometer (Promega).

[2] = system: phosphorylation of Akt and ERK; experiment: Western blot, phosphorylation of Akt and ERK in HCC827 and H1975 cells; format: cell-based; conditions: H1975 compared with HCC827, 4 h, result in words
Protocol: (§2) Non-small cell lung cancer (HCC827, H1975) cell lines were treated with the tested drug candidates for the designated time (4 h). The cells were then harvested for Western blot analysis in lysis buffer (0.05-M HEPES pH 7.4, 0.15-M NaCl, 2-mM EDTA, 10% v/v glycerol, 1% v/v Triton X-100) supplemented with protease and phosphatase inhibitor cocktail (Thermo Scientific). Whole cell lysates were separated by SDS-PAGE and subjected to immunoblot analysis with the respective antibodies [total EGFR, phosphor-EGFR (Y845), phosphor-ERK1/2 (Thr177/Thr160), ERK1/2, phosphor-Akt, total Akt, and GAPDH (Santa Cruz Biotechnology, Santa Cruz, CA, USA)]. Primary antibody incubation was carried out at 4°C overnight in 5% bovine serum albumin/phosphate-buffered saline-Tween 20. Afterward, the membranes were incubated with HRP-conjugated donkey anti-mouse/anti-rabbit secondary antibody at room temperature for 1 h, and developed using the WesternBright Quantum chemiluminescence detection system (Advansta Corporation, Menlo Park, CA, USA). Anti-GAPDH antibody was used as the loading control (Santa Cruz Biotech, Santa Cruz, CA, USA). Digital chemiluminescence images were captured and quantified by using the FluorChem Q Imaging System (Alpha Innotech Corporation, Santa Clara, CA, USA).

HCC827 cells = experiment: Growth inhibition, sulforhodamine B assay, HCC827; format: cell-based; conditions: for IC50: HCC827 (EGFR E746_A750 deletion), 72 h; for anticancer activity / effect on cell proliferation: HCC827, result in words
Description: (§3) Two NSCLC cell lines carrying specific EGFR mutations (HCC827: EGFR sensitizing E746_A750 deletion; H1975: resistance-causing EGFR T790M secondary mutation) were purchased from American Type Culture Collection (ATCC; Manassas, VA, USA). A normal human lung epithelial cell line BEAS-2B was also obtained from ATCC to investigate the potential toxic effect of the tested drugs. HCC827, H1975, and BEAS-2B cells were maintained in RPMI1640 medium supplemented with 10% fetal bovine serum, 100-U/mL streptomycin sulfate, and 100-U/mL penicillin G sulfate, and incubated at 37°C in 5% CO2.
(§4) Growth inhibitory effects of various drug candidates on the cell lines were evaluated by the sulforhodamine B assay ([32]). Cells were seeded into 96-well tissue culture plates in 100 µL at a plating density of 3,000–5,000 cells/well, and allowed to incubate overnight. The cells were then treated with various drug candidates at a range of concentrations and allowed to incubate at 37°C in 5% CO2 for 72 h. Each drug concentration was tested in quadruplicate and controls were tested in replicates of eight.

BEAS-2B cells = experiment: Cytotoxicity in normal lung epithelial cell line BEAS-2B; format: cell-based, human; conditions: for reduced cell viability: BEAS-2B
Description: as §3, §4

PUMA = experiment: Western blot, induction of PUMA in HCC827 and H1975 cells; format: cell-based; conditions: H1975 compared with HCC827, result in words
EGFR phosphorylation = experiment: Western blot, EGFR autophosphorylation in HCC827 and H1975 cells; format: cell-based; conditions: H1975 compared with HCC827, 4 h, result in words
Protocol: as §2

EGFR L858R/T790M = EGFR L858R/T790M (Homo sapiens, UniProt P00533, L858R/T790M); experiment: Cell-free kinase inhibition assay (ADP-Glo), EGFR L858R/T790M; format: biochemical; conditions: for Fold difference from L858R value: L858R/T790M IC50 versus L858R IC50; for IC50: recombinant EGFR L858R/T790M, poly-EY substrate
Protocol: as §1

H1975 cells [3] = experiment: Growth inhibition, sulforhodamine B assay, H1975; format: cell-based; conditions: for anticancer activity / effect on cell proliferation: H1975, result in words
Description: as §3, §4

EGFR wild type [4] = biological target: EGFR wild type (Homo sapiens, UniProt P00533); experiment: Cell-free kinase inhibition assay (ADP-Glo), EGFR wild type; format: biochemical; conditions: recombinant EGFR wild type, poly-EY substrate
Protocol: as §1

EGFR wild type [5] = experiment: as above; format: biochemical; conditions: wild type IC50 versus L858R IC50
Protocol: as §1

[6] = system: L858R/T790M EGFR-bearing NSCLC cells; conditions: L858R/T790M EGFR-bearing NSCLC cells ref 15; cited from earlier work
[7] = system: phosphorylation of EGFR, Akt, and ERK; experiment: Western blot, drug combination, phosphorylation of EGFR, Akt and ERK in H1975 cells; format: cell-based; conditions: H1975, gefitinib 10 µM, indacaterol 10 µM, alone or concomitant, 4 h, result in words
[8] = highest concentration tested 100 µM
[9] = H1975 (EGFR L858R/T790M), 72 h, read-out: IC50

Chain of EGFR wild type (Homo sapiens, UniProt P00533) (P00533 25-1210): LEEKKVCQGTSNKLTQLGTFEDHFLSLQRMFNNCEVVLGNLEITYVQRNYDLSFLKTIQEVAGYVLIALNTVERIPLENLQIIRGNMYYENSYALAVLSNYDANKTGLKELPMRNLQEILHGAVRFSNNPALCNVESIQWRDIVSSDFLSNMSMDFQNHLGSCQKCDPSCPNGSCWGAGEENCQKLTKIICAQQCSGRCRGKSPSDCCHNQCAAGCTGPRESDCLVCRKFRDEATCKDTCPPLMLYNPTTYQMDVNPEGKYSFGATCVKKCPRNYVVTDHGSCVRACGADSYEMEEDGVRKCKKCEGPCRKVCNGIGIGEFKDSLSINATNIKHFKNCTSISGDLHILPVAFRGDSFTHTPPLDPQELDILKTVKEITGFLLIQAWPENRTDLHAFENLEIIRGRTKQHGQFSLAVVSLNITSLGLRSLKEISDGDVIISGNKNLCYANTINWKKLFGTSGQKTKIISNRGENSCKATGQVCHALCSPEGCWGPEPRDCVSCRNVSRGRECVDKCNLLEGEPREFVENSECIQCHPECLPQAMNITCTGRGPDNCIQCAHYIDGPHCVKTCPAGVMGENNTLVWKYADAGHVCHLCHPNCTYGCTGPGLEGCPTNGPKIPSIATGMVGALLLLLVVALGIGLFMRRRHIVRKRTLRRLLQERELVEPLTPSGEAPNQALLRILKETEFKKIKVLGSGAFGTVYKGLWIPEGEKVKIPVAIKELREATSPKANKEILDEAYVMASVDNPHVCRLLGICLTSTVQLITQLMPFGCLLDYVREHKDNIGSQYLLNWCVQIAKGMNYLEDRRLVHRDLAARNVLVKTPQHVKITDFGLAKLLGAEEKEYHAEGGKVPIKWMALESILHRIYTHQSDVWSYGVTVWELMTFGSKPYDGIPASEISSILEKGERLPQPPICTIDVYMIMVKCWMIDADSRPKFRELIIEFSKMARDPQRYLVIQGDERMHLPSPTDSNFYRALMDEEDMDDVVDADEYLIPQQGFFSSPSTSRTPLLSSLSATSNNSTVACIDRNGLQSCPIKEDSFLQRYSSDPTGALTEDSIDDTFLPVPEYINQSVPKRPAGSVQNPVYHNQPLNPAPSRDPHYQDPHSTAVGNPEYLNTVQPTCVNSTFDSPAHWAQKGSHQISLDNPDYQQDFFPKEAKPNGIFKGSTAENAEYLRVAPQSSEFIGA
Chain of EGFR L858R/T790M (P00533 25-1210 T790M/L858R): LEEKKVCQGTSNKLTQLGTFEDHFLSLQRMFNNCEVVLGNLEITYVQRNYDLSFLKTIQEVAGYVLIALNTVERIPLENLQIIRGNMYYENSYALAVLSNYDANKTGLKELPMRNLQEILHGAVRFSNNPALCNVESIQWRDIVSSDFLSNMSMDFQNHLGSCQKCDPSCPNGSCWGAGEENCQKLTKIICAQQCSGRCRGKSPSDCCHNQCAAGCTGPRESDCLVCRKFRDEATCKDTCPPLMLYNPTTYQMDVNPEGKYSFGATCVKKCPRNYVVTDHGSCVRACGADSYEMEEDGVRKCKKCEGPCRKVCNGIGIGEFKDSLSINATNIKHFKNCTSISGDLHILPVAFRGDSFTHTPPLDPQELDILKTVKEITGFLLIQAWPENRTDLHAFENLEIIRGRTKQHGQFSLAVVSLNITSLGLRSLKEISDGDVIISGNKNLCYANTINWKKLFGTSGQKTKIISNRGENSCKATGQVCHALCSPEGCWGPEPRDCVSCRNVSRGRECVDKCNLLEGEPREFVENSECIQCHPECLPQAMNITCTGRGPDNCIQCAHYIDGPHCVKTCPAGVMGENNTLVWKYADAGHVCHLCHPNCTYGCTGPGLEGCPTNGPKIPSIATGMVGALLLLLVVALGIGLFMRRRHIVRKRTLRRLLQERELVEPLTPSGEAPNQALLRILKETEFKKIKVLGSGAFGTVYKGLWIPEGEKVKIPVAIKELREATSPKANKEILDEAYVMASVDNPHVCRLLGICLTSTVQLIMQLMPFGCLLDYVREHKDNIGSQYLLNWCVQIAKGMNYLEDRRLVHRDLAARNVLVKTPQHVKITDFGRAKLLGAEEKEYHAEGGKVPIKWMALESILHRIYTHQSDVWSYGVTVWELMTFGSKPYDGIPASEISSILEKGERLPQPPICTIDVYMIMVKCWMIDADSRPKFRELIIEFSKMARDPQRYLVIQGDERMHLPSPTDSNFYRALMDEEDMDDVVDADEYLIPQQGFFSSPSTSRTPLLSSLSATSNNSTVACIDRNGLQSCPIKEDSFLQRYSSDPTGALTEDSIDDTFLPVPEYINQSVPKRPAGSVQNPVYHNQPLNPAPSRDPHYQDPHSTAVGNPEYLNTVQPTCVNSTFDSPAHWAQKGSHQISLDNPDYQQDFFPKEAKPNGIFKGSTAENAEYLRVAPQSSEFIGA
Chain of EGFR L858R (P00533 25-1210 L858R): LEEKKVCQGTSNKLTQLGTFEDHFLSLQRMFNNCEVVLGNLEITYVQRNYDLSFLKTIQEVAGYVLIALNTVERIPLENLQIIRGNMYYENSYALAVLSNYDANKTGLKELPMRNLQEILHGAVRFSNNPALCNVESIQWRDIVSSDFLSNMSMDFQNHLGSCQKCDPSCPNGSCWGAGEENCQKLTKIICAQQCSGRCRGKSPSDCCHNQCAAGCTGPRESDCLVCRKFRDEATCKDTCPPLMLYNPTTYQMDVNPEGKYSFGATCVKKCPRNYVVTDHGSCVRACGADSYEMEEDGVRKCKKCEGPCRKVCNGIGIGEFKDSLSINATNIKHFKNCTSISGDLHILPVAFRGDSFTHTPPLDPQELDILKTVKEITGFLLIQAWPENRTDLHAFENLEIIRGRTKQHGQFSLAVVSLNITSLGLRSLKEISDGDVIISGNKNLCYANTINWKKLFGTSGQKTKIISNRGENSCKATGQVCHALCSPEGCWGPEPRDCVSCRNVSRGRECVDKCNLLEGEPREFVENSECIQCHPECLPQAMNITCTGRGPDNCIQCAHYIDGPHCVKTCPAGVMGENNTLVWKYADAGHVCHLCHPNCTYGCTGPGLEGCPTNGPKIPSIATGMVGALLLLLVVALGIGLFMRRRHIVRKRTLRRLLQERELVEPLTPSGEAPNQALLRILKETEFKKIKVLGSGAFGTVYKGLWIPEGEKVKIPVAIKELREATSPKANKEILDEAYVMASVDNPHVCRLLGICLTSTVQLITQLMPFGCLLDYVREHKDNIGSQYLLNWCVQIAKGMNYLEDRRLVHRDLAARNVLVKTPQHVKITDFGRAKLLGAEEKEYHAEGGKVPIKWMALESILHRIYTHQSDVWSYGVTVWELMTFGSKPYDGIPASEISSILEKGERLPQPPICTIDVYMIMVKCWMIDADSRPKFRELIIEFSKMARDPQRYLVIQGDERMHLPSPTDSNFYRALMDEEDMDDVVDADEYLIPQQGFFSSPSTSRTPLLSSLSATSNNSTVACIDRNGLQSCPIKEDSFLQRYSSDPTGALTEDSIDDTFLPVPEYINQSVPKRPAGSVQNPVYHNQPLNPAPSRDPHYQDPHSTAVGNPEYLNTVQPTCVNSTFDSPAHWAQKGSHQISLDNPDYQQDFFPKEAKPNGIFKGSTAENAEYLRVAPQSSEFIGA

Row | IC50 (EGFR L858R) [nM] | Fold difference from L858R value (EGFR L858R/T790M) | IC50 (EGFR L858R/T790M) [nM] | IC50 (EGFR wild type [4]) [nM] | SMILES | induction of apoptosis (H1975 cells [1]) | anticancer activity / effect on cell proliferation (HCC827 cells) | inhibition of EGFR phosphorylation (EGFR phosphorylation) | anticancer activity / effect on cell proliferation (H1975 cells [3]) | Fold difference from L858R value (EGFR wild type [5]) | further results
1 | 368 ± 29.6 | 0.7 | 261 ± 24.4 | 795 ± 49.6 | Cc1ccc([C@@H]2O[C@H](CO)[C@@H](O)[C@H](O)[C@H]2O)cc1Cc1ccc(-c2ccc(F)cc2)s1 [Canagliflozin] | induce apoptosis in a concentration-dependent manner | exhibit anticancer activity | more potently in H1975 than in HCC827 cells | exhibit anticancer activity | 2.2 | inhibition of phosphorylation of Akt and ERK [2]: more remarkably in H1975 than in HCC827; IC50 (HCC827 cells): 45.4 ± 2.9 µM; reduced cell viability (BEAS-2B cells; [8]): less than 20%; induction of PUMA (PUMA): more pronounced induction of PUMA in H1975 cells than in HCC827 cells; IC50 (H1975 cells [3]; [9]): 25.5 ± 3.1 µM
2 |  |  |  |  | COc1cc2ncnc(Nc3ccc(F)c(Cl)c3)c2cc1OCCCN1CCOCC1 [Gefitinib] |  |  |  |  |  | proportion of apoptotic cells (H1975 cells [1]; H1975, gefitinib alone 4 µM): 6.9 ± 1.2%
3 | 83 ± 5.2 | 1.1 | 94 ± 11.2 | 186 ± 21.5 | OCCN1CCN(CC/C=C2/c3ccccc3Sc3ccc(C(F)(F)F)cc32)CC1 [Cis-flupenthixol] | induce apoptosis in a concentration-dependent manner | exhibit anticancer activity | similarly in both H1975 and HCC827 cells | exhibit anticancer activity | 2.2 | reduced cell viability (BEAS-2B cells; highest concentration tested 20 µM): less than 20%
4 |  |  |  |  | O=C(c1ccc(F)cc1)C1CCN(CCn2c(=O)[nH]c3ccccc3c2=O)CC1 [Ketanserin] |  | negative |  | negative |  | 
5 |  |  |  |  | CCCc1nn(C)c2c(=O)[nH]c(-c3cc(S(=O)(=O)N4CCN(C)CC4)ccc3OCC)nc12 [Sildenafil] |  | negative |  | negative |  | 
6 |  |  |  |  | C#Cc1cccc(Nc2ncnc3cc(OCCOC)c(OCCOC)cc23)c1 [Erlotinib] |  |  |  |  |  | IC50 (BEAS-2B cells; Homo sapiens, BEAS-2B normal lung epithelial cells): ~20 µM; IC50 (H1975 cells [3]; Homo sapiens, NCI-H1975, 72 h): 8.2 ± 2.1 µM
7 |  |  |  |  | C=CC(=O)Nc1cc(Nc2nccc(-c3cn(C)c4ccccc34)n2)c(OC)cc1N(C)CCN(C)C [osimertinib] |  |  |  |  |  | IC50 [6]: ~11 nM
8 | 232 ± 36.5 | 0.4 | 103 ± 14 | 792 ± 43.2 | CCc1cc2c(cc1CC)CC(NC[C@H](O)c1ccc(O)c3[nH]c(=O)ccc13)C2 [Indacaterol] | induce apoptosis in a concentration-dependent manner | exhibit anticancer activity | more potently in H1975 than in HCC827 cells | exhibit anticancer activity | 3.4 | proportion of apoptotic cells (H1975 cells [1]; H1975, indacaterol alone 5 µM): 9.7 ± 1.8%; inhibition of phosphorylation of Akt and ERK [2]: more remarkably in H1975 than in HCC827; IC50 (HCC827 cells; Homo sapiens): 41.5 ± 3.9 µM; reduced cell viability (BEAS-2B cells; [8]): less than 20%; induction of PUMA (PUMA): more pronounced induction of PUMA in H1975 cells than in HCC827 cells; IC50 (H1975 cells [3]; [9]): ~14 µM; IC50 (H1975 cells [3]; Homo sapiens, NCI-H1975, 72 h, H1975 (EGFR L858R/T790M), 72 h, read-out: IC50): 14.3 ± 2.2 µM; inhibition of phosphorylation of EGFR, Akt, and ERK [7]: mildly
